{"source": "patent US8871778B2", "about": "“Substituted pyrimidine compounds and their use as SYK inhibitors” (Genosco, priority 2012, dated 2014)", "key": {"full-length human SYK": {"biological_target": "full-length human SYK (Homo sapiens (Human), UniProt P43405)", "assay": "Inhibition of enzymatic SYK kinase activity (LANCE Ulight-TK peptide, Eu-antibody, 665 nm emission)", "assay_type": "biochemical", "details": "ATP at Km (15 uM)"}, "[1]": {"system": "CIA mouse model (DBA/1J mice)", "assay": "Collagen-induced arthritis (CIA) mouse model, macroscopic scoring of paws", "assay_type": "in vivo", "details": "for Inhibition in arthritis phenotype indicated by CIA compared with R788 (in words): mouse, in vivo; for CIA index (arthritic score of test group / vehicle group x 100): 30 mg/kg/day oral gavage once daily, DBA/1J mice", "protocol": "CIA mouse model was induced in DBA/1J mice (Japan Charles River Breeding Laboratories, Kanagawa, Japan) with 5 to 6 weeks of age. Animals were maintained at a temperature of 20±5° C. and a relative humidity of 40˜60%.\nBovine type II collagen (CII, 2 mg/ml dissolved in 0.05 M acetic acid, Chondrex, Redmond, Wash.) was emulsified in equal volumes of Freund's complete adjuvant (4 mg/ml of Mycobacterium tuberculosis strain H37Ra; Chondrex, Redmond, Wash.). On day 0, mice were immunized intradermally at the base of the tail with 100 μg bovine type II collagen emulsified in Freund's complete adjuvant. On day 21, all mice were boosted with an intraperitoneal injection of 100 μg type II collagen.\nAll the test substances were administered once daily at 30 mg/kg/day by oral gavage for 3 weeks.\nThe gradual onset of arthritis usually starts approximately 3 weeks after initial immunization. The progression of CIA was evaluated by the macroscopic scoring of paws at intervals of 3 days. The edema and swelling of each paw was scored visually as was described previously, using a scale of 0-4, where 0=no visible abnormalities, 1=mild redness or swelling of the wrist or up to three inflamed digits, 2=more than three inflamed digits or moderate redness and swelling of the ankle or wrist, 3=severe ankle and wrist inflammation, 4=extensive ankle and wrist inflammation including all digits.\nArthritis was considered to be present if the score was >2. The blind scoring was performed by four independent observers. In this study, data was calculated by following equation."}, "[2]": {"biological_target": "full-length human KDR (VEGFR2) (Homo sapiens (Human), UniProt P35968)", "sequence (P35968 20-1356)": "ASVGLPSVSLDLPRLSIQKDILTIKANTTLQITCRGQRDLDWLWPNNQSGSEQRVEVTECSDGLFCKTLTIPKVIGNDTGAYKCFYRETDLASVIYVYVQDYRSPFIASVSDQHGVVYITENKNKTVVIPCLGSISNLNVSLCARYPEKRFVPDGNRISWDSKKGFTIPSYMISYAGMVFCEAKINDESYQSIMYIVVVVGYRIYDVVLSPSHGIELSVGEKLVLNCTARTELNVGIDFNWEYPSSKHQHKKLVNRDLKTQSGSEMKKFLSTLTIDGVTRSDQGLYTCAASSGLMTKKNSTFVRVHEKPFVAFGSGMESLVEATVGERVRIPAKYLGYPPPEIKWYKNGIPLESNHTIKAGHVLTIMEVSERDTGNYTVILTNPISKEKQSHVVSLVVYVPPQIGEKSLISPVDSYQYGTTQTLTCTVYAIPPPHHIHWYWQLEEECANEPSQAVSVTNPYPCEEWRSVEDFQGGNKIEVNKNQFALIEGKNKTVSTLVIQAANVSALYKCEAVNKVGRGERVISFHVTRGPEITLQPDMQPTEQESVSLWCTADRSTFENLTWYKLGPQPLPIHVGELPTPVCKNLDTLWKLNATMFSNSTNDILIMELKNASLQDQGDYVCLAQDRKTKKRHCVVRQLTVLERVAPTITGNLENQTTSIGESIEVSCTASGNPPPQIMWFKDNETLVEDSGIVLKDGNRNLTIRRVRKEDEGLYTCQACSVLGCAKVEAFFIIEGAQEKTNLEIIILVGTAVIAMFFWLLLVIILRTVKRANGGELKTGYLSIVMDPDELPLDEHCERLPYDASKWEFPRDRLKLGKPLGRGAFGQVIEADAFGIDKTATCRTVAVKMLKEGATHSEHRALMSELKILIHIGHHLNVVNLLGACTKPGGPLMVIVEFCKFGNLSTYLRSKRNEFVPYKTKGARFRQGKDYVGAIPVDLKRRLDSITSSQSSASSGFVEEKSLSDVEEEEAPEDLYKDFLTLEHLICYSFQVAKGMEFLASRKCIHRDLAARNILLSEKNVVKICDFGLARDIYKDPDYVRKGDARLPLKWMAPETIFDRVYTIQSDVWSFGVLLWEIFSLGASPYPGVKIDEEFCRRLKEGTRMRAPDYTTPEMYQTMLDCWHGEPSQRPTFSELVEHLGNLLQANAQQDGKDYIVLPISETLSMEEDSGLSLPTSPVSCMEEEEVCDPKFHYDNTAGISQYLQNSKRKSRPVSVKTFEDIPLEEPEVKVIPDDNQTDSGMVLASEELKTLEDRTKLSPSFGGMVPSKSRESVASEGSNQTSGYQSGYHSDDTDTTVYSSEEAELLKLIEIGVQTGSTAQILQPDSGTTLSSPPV", "assay": "Inhibition of enzymatic KDR kinase activity (LANCE Ulight-JAK1 peptide, Eu-antibody, 665 nm emission)", "assay_type": "biochemical", "details": "ATP at Km (15 uM)"}, "THP-1 cells [3]": {"system": "THP-1 cells", "assay": "SYK-dependent TNF-α release assay (IgG stimulation), ELISA", "assay_type": "cell-based, human", "details": "for IC50: human IgG-coated plate, 18 hours, SYK-dependent pathway, read-out: TNF-α release inhibition, IgG stimulation (IC50 nM)", "protocol": "For SYK-dependent TNF-α release assay (i.e., via IgG stimulation), THP-1 cells derived from human monocytic cells were obtained from the American Type Culture Collection (ATCC, Manassas, Va.). This cell line was maintained with a Roswell Park Memorial Institute (RPMI) medium (GIBCO) containing 10% fetal bovine serum (FBS; GIBCO) and 0.05 mM solution of 2-mercaptoethanol. The THP-1 cells were seeded at 1×10^5 cells/100 μL/well into human IgG (10 ng/well, INVITROGEN)-coated 96 well culture plate, and serially diluted compound was then added. After an 18 hours of incubation period at 37° C., supernatants were collected for the determination of the TNF-α level by enzyme-linked immunosorbent assay (ELISA), and the remaining cells were subjected to an MTT (yellow tetrazolium salt) assay to determine the cytotoxic effects of the compound. The IC50 value of the test compound was calculated at Gradpad Prism 5 unless otherwise specified."}, "THP-1 cells [4]": {"system": "THP-1 cells", "assay": "SYK-independent TNF-α release assay (lipopolysaccharide stimulation), ELISA", "assay_type": "cell-based, human", "details": "SYK-independent pathway; for IC50: LPS, 18 hours, read-out: TNF-α release inhibition, LPS stimulation (IC50 nM)", "protocol": "For SYK-independent TNF-α release assay, THP-1 cells were seeded at 1×10^5 cells/100 μL/well into 96 well culture plate, and serially diluted compound solution was added following lipopolysaccharide stimulation. After an 18-hour incubation period at 37° C., supernatants were collected for the determination of the TNF-α level by enzyme-linked immunosorbent assay (ELISA), and the remaining cells were subjected to an MTT (yellow tetrazolium salt) assay to determine the cytotoxic effects of compound. The IC50 value of test compound was calculated at Gradpad Prism 5 unless otherwise specified."}}}
{"smiles": "Cc1cn(-c2ccnc(Nc3ccc4c(ccn4C)c3)n2)cc1CN1CC(O)C1", "note": "[Compound 52, 1-((4-methyl-1-(2-(1-methyl-1H-indol-5-ylamino)pyrimidin-4-yl)-1H-pyrrol-3-yl)methyl)azetidin-3-ol]", "values": [{"measurement": "IC50", "setting": "full-length human SYK", "value": 190, "unit": "nM"}]}
{"smiles": "Cc1nn(-c2ccnc(Nc3ccc4c(c3)c(Cl)c(C)n4C)n2)cc1CN1CC(O)C1", "note": "[Compound 141, 1-((1-(2-(3-chloro-1,2-dimethyl-1H-indol-5-ylamino)pyrimidin-4-yl)-3-methyl-1H-pyrazol-4-yl)methyl)azetidin-3-ol]", "values": [{"measurement": "Inhibition in arthritis phenotype indicated by CIA compared with R788 (in words)", "setting": "[1]", "value": "stronger inhibition"}, {"measurement": "IC50", "setting": "[2]", "value": 192, "unit": "nM"}]}
{"smiles": "Cc1nn(-c2ccnc(Nc3ccc4c(c3)c(Cl)cn4C)n2)cc1CN1CC(O)C1", "note": "[Compound 144, 1-((1-(2-(3-Chloro-1-methyl-1H-indol-5-ylamino)pyrimidin-4-yl)-3-methyl-1H-pyrazol-4-yl)methyl)azetidin-3-ol]", "values": [{"measurement": "Inhibition in arthritis phenotype indicated by CIA compared with R788 (in words)", "setting": "[1]", "value": "stronger inhibition"}, {"measurement": "Inhibition in SYK dependent TNF-α release assay compared with R406 (in words)", "setting": "THP-1 cells [3]; IgG stimulated release", "value": "stronger inhibition than R406"}, {"measurement": "IC50", "setting": "THP-1 cells [3]", "value": 13, "unit": "nM"}, {"measurement": "IC50", "setting": "THP-1 cells [4]; Homo sapiens", "value": 1140, "unit": "nM"}, {"measurement": "Inhibition in LPS stimulated TNF-α production (in words)", "setting": "THP-1 cells [4]", "value": "no inhibition"}]}
{"smiles": "Cc1nn(-c2ccnc(Nc3ccc4c(c3)c(C(=O)C(F)(F)F)cn4C)n2)cc1CN1CC(O)C1", "note": "[Compound 151, 2,2,2-Trifluoro-1-(5-(4-(4-((3-hydroxyazetidin-1-yl)methyl)-3-methyl-1H-pyrazol-1-yl)pyrimidin-2-ylamino)-1-methyl-1H-indol-3-yl)ethanone]", "values": [{"measurement": "IC50", "setting": "THP-1 cells [3]", "value": 20, "unit": "nM"}, {"measurement": "IC50", "setting": "THP-1 cells [4]; Homo sapiens", "value": "> 1000", "unit": "nM"}]}
{"smiles": "Cc1nn(-c2ccnc(Nc3ccc4c(cnn4C)c3)n2)cc1CN1CC(O)C1", "note": "[Compound 160, 1-((3-Methyl-1-(2-(1-methyl-1H-indazol-5-ylamino)pyrimidin-4-yl)-1H-pyrazol-4-yl)methyl)azetidin-3-ol]", "values": [{"measurement": "IC50", "setting": "THP-1 cells [3]", "value": 91, "unit": "nM"}, {"measurement": "IC50", "setting": "THP-1 cells [4]; Homo sapiens", "value": 934, "unit": "nM"}]}
{"smiles": "Cc1nn(-c2ccnc(Nc3ccc4c(c3)c(Cl)c(C)n4C)n2)cc1CN1CC[C@@H](O)C1", "note": "[Compound 189, (R)-1-((1-(2-(3-Chloro-1,2-dimethyl-1H-indol-5-ylamino)pyrimidin-4-yl)-3-methyl-1H-pyrazol-4-yl)methyl)pyrrolidin-3-ol]", "values": [{"measurement": "IC50", "setting": "THP-1 cells [3]", "value": 42, "unit": "nM"}, {"measurement": "IC50", "setting": "THP-1 cells [4]; Homo sapiens", "value": 2800, "unit": "nM"}]}
{"smiles": "COc1cc(Nc2ncc(F)c(Nc3ccc4c(n3)NC(=O)C(C)(C)O4)n2)cc(OC)c1OC", "note": "[Compound R406, reference compound]", "values": [{"measurement": "IC50", "setting": "THP-1 cells [3]", "value": 171, "unit": "nM"}]}
{"smiles": "COc1cc(Nc2ncc(F)c(Nc3ccc4c(n3)N(COP(=O)(O)O)C(=O)C(C)(C)O4)n2)cc(OC)c1OC", "note": "[Compound R788]", "values": [{"measurement": "CIA index (arthritic score of test group / vehicle group x 100)", "setting": "[1]; day 6", "value": "41.9 ± 7.5", "unit": "%"}, {"measurement": "CIA index (arthritic score of test group / vehicle group x 100)", "setting": "[1]; day 9", "value": "49.6 ± 9.4", "unit": "%"}, {"measurement": "CIA index (arthritic score of test group / vehicle group x 100)", "setting": "[1]; day 12", "value": "68.3 ± 8.6", "unit": "%"}, {"measurement": "CIA index (arthritic score of test group / vehicle group x 100)", "setting": "[1]; day 15", "value": "74.1 ± 7.1", "unit": "%"}, {"measurement": "CIA index (arthritic score of test group / vehicle group x 100)", "setting": "[1]; day 18", "value": "79.4 ± 10.7", "unit": "%"}, {"measurement": "CIA index (arthritic score of test group / vehicle group x 100)", "setting": "[1]; day 21", "value": "80.1 ± 6.7", "unit": "%"}]}
{"smiles": "C[C@@H]1C[C@H]2[C@@H]3CCC4=CC(=O)C=C[C@]4(C)[C@@]3(F)[C@@H](O)C[C@]2(C)[C@@]1(O)C(=O)CO", "note": "[Dexamethasone]", "values": [{"measurement": "IC50", "setting": "THP-1 cells [4]", "value": 431, "unit": "nM"}]}
